# In article PMC6957264 (Bioconjugate chemistry, 2017):
# Assays:
# [1] = tested on: EGFP-tagged PKCδ in CHO cells; experiment: Translocation of EGFP-tagged PKCδ in CHO cells, confocal microscopy; assay type: cell-based, Chinese hamster; conditions: 10 μM compound, images at 0, 5 and 10 min
# [2] = tested on: isolated PKCδ C1a domain; conditions: cited from earlier work
# [3] = target: PKCδ C1b domain (Mus musculus, UniProt P28867); experiment: [3H]PDBu competitive binding assay, isolated C1b domain of PKCδ; conditions: read-out: Kd for the binding of [3H]PDBu to the PKCδ C1b
# Sequence of PKCδ C1b domain (P28867 231-280 limits assumed): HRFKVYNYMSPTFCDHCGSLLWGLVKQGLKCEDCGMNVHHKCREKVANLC
# [4] = target: isolated PKCδ C1b domain; conditions: read-out: Kd for the isolated PKCδ C1b domain; cited from earlier work
# [5] = tested on: EGFP-tagged PKCε in LNCaP cells; experiment: Translocation of GFP-tagged PKCε in LNCaP cells, confocal microscopy; assay type: cell-based, human; conditions: 1 μM, single experiment
# [6] = tested on: C1a and C1b domains of PKCε; conditions: C1a vs C1b; cited from earlier work
Molecule,translocation of EGFP-PKCδ from cytosol to plasma membranes [1],"difference in Kd between isolated PKCδ C1a and C1b domains ([2]; C1a vs C1b, isolated domains) [fold]",Kd ([2]; read-out: Kd for the isolated PKCδ C1a domain) [nM],Kd [3] [nM],Kd [4] [nM],plasma membrane translocation of PKCε [5],difference in affinity between the C1a and C1b domains of PKCε [6] [fold]
"CCCC(=O)O[C@@H]1[C@@H](C)[C@@]2(O)[C@@H](C=C(CO)C[C@]3(O)C(=O)C(C)=C[C@@H]23)[C@@H]2C(C)(C)[C@]12OC(=O)CCC [PDBu, phorbol 12,13-dibutyrate]",not observed more clearly than those by monomeric and dimeric DAG–lactones,6,2,0.19,0.33,,
"CCCCCCCCCCCCCC(=O)O[C@@H]1[C@@H](C)[C@@]2(O)[C@@H](C=C(CO)C[C@]3(O)C(=O)C(C)=C[C@@H]23)[C@@H]2C(C)(C)[C@]12OC(C)=O [PMA, phorbol 12-myristate 13-acetate]",,,,,,dramatic plasma membrane translocation,≤ 3
"sn-1,2-diacylglycerol [DAG]",,,,,,,≤ 3
